Where a name gives a salt, the structure may show the parent alone.
Experiments:
[1] = tested on: K. pneumoniae; assay: Off-chip MIC, broth dilution method according to CLSI protocols; assay type: cell-based; conditions: CAMHB, 20 h at 35° C.
Method: (§1) Off-chip MIC assays using the broth dilution method according to CLSI protocols were performed as control experiments and to validate experimental data obtained with the microfluidic device.

[2] = tested on: P. mirabilis (HI4320); assay: MIC measurement using the self-loading microfluidic device; assay type: cell-based; conditions: 18 h at 35° C., CAMBH pH 8.2 with 1% glucose and 0.05% phenol red, dilution series 0.5-1024 μg/mL
Method: (§2) Minor adjustments were made to procedures mimicking the CLSI guidelines to perform MIC measurements using microfluidic devices prepared as described above. Antibiotic stock solutions (10 mg/mL in sterile deionized water) of vancomycin hydrochloride, tetracycline hydrochloride, and kanamycin monosulfate were used to prepare a 1:10 dilution series. Appropriate amounts of these dilutions were added to sterile deionized water to create a two-fold dilution series that varied from 0.5-1024 μg/mL. Antibiotic solution (2.94 μL) was added to each chamber with the lowest antibiotic concentration located closest to the inlet port and the highest antibiotic concentration located in the chamber closest to the vacuum well. After antibiotic loading, the device was placed in a laminar flow hood to evaporate the liquid. After the liquid was evaporated, the device was assembled by placing the layer of PDMS forming the channel section over the chamber layer containing the dried antibiotic such that the channels connected the chambers. The assembled device was then placed under vacuum.
(§3) The standardized culture was then diluted 1:200 in CAMBH media, pH 8.2 supplemented with 1% glucose and 0.05% phenol red to provide a colorimetric change upon growth. The device was removed from the vacuum and 20 μL of cell suspension was pipetted onto the inlet port. […] Bacterial growth changed the pH of the liquid nutrient media containing the indicator phenol red, and produced a visible color change that was used to identify the cell growth in chambers.

[3] = tested on: K. pneumoniae; assay: as above; assay type: cell-based; conditions: 18 h at 35° C., CAMBH pH 8.2 with 1% glucose and 0.05% phenol red, dilution series 0.5-1024 μg/mL
Method: as §2, §3

[4] = tested on: kanamycin-resistant strain of E. coli MG1655; assay: Susceptibility to multiple antibiotics on a single microfluidic device using breakpoint values; assay type: cell-based; conditions: 18 h; vancomycin 2, 4, 8 μg/mL, tetracycline 0.5, 1, 2 μg/mL, kanamycin 1, 2, 4 μg/mL
Excerpt: In this Example, a single microfluidic device was used to simultaneously test the susceptibility of the kanamycin-resistant strain of E. coli MG1655 described above to multiple antibiotics using breakpoint values.
In clinical microbiology, a strain is classified as susceptible, intermediate, or resistant based on the relationship of the MIC of an antibiotic to specified ‘breakpoint’ values. Breakpoint values are set by organizations, such as the CLSI, and take into consideration MIC values of wild type strains, pharmacokinetic/pharmacodynamic data, and clinical outcomes. Breakpoint values are available for specific clinically relevant pairings of bacterial species and antibiotics and enable clinical decisions without knowing the exact MIC value.
Specifically, vancomycin, tetracycline, and kanamycin were added to the reaction wells of a single device. The most common breakpoints for vancomycin (susceptible <2 μg/mL, resistant >2 μg/mL), tetracycline (susceptible <1 μg/mL, intermediate=2 μg/mL, resistant >2 μg/mL), and gentamicin (susceptible <2 μg/mL, intermediate=4 μg/mL, resistant >4 μg/mL) were used. As there are no published breakpoints available for kanamycin, the breakpoint values for the structurally related aminoglycoside, gentamicin, against aerobic bacteria was used. A microfluidic device with ten chambers was prepared as described in Example 1 above. The ten chambers were divided into three chambers for each antibiotic vancomycin (2, 4, 8 μg/mL), tetracycline (0.5, 1, 2 μg/mL), and kanamycin (1, 2, 4 μg/mL) and one chamber for a control containing no antibiotic.

[5] = tested on: P. mirabilis (HI4320); assay: Off-chip MIC, broth dilution method according to CLSI protocols; assay type: cell-based; parameters: unit not given beside the values; conditions: CAMHB, 20 h at 35° C.
Method: as §1

[6] = tested on: S. aureus; conditions: cited from earlier work; note: key: + indicates growth; − indicates no growth
[7] = tested on: E. coli (UT189); conditions: cited from earlier work; for Growth, Device: key: + indicates growth; − indicates no growth; for Growth, Predicted: key: + indicates growth; − indicates no growth
[8] = tested on: A. baumannii; assay: Growth in sugars, culture tubes; assay type: cell-based; conditions: for Growth, Tube: A. baumannii, culture tubes
Excerpt: (§4) Results observed in microfluidic devices are illustrated in FIGS. 29A-F and 30A-E. The predicted growth as compared to devices and culture tubes are summarized in Table 2.

[9] = tested on: E. coli (UT189); assay: Growth in sugars, culture tubes; assay type: cell-based
Excerpt: as §4

[10] = tested on: K. pneumoniae; assay: Growth in sugars, culture tubes; assay type: cell-based
Excerpt: as §4

[11] = tested on: E. faecalis; assay: Growth in sugars, culture tubes; assay type: cell-based
Excerpt: as §4

[12] = tested on: E. faecalis; conditions: cited from earlier work; for Growth, Predicted: key: + indicates growth; − indicates no growth
[13] = tested on: A. baumannii; assay: Growth in sugars, microfluidic device (phenol red colour change); for Growth, Device: key: + indicates growth; − indicates no growth; assay type: cell-based; conditions: for Growth, Device: A. baumannii, sugar 1% (w/v), LB with 0.05% phenol red pH 8.2
Method: (§5) Self-loading microfluidic devices were prepared as described above. Reaction wells were filled with different sugar solutions including (1) cellbiose, (2) glycerol, (3) lactose, (4) mannitol, (5) mannose, (6) raffinose, (7) sucrose, (8) trehalose, (9) xylose, and (10) control (no sugar) (FIG. 28). The final concentration of the sugar in each chamber was 1% (w/v). After loading the sugar solutions, the liquid was evaporated as described above. The devices were then assembled and degassed by vacuum.
(§6) Cultures of A. baumannii-1, A. baumannii-2, K. pneumoniea-1, K. pneumoniea-2, S. aureus-1, S. aureus-2, E. coli (UT189), E. faecalis-1, E. faecalis-2, V. cholerae-1, and (11) V. cholerae-2 were grown for 15 hours in LB (pH 7.0). The cultures were then diluted at a ratio of 1:50 in LB containing 0.05% (w/v) phenol red (pH8.2) and added to individual devices using degas-driven flow. Growth of bacteria results in a pH change of the LB that causes a color change from red (illustrated in FIGS. 29 and 30 as filled chambers) to yellow (illustrated in FIGS. 29 and 30 as hatched chambers).

[14] = tested on: E. coli (UT189); assay: as above; assay type: cell-based; conditions: for Growth, Device: E. coli (UT189), sugar 1% (w/v), LB with 0.05% phenol red pH 8.2; for growth in device chamber: E. coli (UT189)-1
Method: as §5, §6

[15] = tested on: K. pneumoniae; assay: as above; assay type: cell-based; conditions: for Growth, Device: K. pneumoniae, sugar 1% (w/v), LB with 0.05% phenol red pH 8.2; for growth in device chamber: K. pneumoniea-1 and K. pneumoniea-2, by 4 hours of incubation
Method: as §5, §6

[16] = tested on: E. faecalis; assay: as above; assay type: cell-based; conditions: E. faecalis-1 and E. faecalis-2; by 18 hours of incubation
Method: as §5, §6

[17] = tested on: S. aureus; assay: Growth in sugars, culture tubes; assay type: cell-based; conditions: for Growth, Tube: culture tubes; for Growth, Tube: key: + indicates growth; − indicates no growth
Excerpt: as §4

[18] = tested on: S. aureus; assay: Growth in sugars, microfluidic device (phenol red colour change); for Growth, Device: key: + indicates growth; − indicates no growth; assay type: cell-based; conditions: for Growth, Device: S. aureus, sugar 1% (w/v), LB with 0.05% phenol red pH 8.2
Method: as §5, §6

[19] = tested on: V. cholerae; assay: as above; assay type: cell-based; conditions: V. cholerae-1 and V. cholerae-2; by 4 hours of incubation
Method: as §5, §6

[20] = S. aureus-1, by 8 hours of incubation
Throughout, for Growth, Device: key: + indicates growth; − indicates no growth.

SMILES	Growth, Predicted [6]	Growth, Predicted [7]	Growth, Tube [8]	Growth, Tube [9]	Growth, Tube [10]	Growth, Tube [11]	Growth, Predicted [12]	Growth, Device [13]	Growth, Device [14]	Growth, Device [15]	growth in device chamber [15]	growth in device chamber [16]	Growth, Tube [17]	growth in device chamber [18, 20]	Growth, Device [18]	growth in device chamber [14]	further results
CN[C@H](CC(C)C)C(=O)N[C@H]1C(=O)N[C@@H](CC(N)=O)C(=O)N[C@H]2C(=O)N[C@H]3C(=O)N[C@H](C(=O)N[C@H](C(=O)O)c4cc(O)cc(O)c4-c4cc3ccc4O)[C@H](O)c3ccc(c(Cl)c3)Oc3cc2cc(c3O[C@@H]2O[C@H](CO)[C@@H](O)[C@H](O)[C@H]2O[C@H]2C[C@](C)(N)[C@H](O)[C@H](C)O2)Oc2ccc(cc2Cl)[C@H]1O [vancomycin, vancomycin hydrochloride]																	MIC, Broth [1]: >1024; MIC, Device [2]: >1024; MIC, Device [3]: >1024; effect on growth of the strain [4]: did not have any effect; MIC, Broth [5]: >1024
OC[C@H]1O[C@H](OC[C@H]2O[C@H](O[C@]3(CO)O[C@H](CO)[C@@H](O)[C@@H]3O)[C@H](O)[C@@H](O)[C@@H]2O)[C@H](O)[C@@H](O)[C@H]1O [Raffinose, raffinose]	−	−	−	−	+	−	−	−	−	+	grew						
OC[C@H]1O[C@@H](O[C@H]2[C@H](O)[C@@H](O)[C@@H](O)O[C@@H]2CO)[C@H](O)[C@@H](O)[C@@H]1O [Cellbiose, cellbiose]	−	−	−	−	+	+	+	−	−	−		grew					
OC[C@@H](O)[C@@H](O)[C@H](O)[C@H](O)CO [Mannitol, mannitol]	+	+		+	+	+	+		+	+	grew	grew	+	grew	+	grew	
OC[C@H]1O[C@@](CO)(O[C@H]2O[C@H](CO)[C@@H](O)[C@H](O)[C@H]2O)[C@@H](O)[C@@H]1O [Sucrose, sucrose]	+	−		−	+	+	+		−	+	grew	grew	+	grew	+		growth in device chamber [19]: grew
OC[C@H]1O[C@H](O[C@H]2O[C@H](CO)[C@@H](O)[C@H](O)[C@H]2O)[C@H](O)[C@@H](O)[C@@H]1O [Trehalose, trehalose]	+	+		+	+	+	+		−	+	grew	grew	+	grew	+		growth in device chamber [19]: grew
OC[C@H]1O[C@@H](O[C@H]2[C@H](O)[C@@H](O)C(O)O[C@@H]2CO)[C@H](O)[C@@H](O)[C@H]1O (stereo partly shown) [Lactose, lactose]	+	+		+	−	+	+		+	−		grew	+	growth was not observed	−	grew	growth in device chamber ([18]; S. aureus-2, by 18 hours of incubation): growth was not observed
OCC(O)CO [Glycerol, glycerol]	+	+	−	−	+	+	+	−	−	+	grew	grew	−	grew	+		growth in culture tubes [17]: no growth was observed
O=C[C@H](O)[C@@H](O)[C@H](O)CO [Xylose, xylose]	−	+	−	+	+	−	−	+	−	−						grew	growth in culture tubes ([8]; A. baumannii-1 and A. baumannii-2): did not grow; growth in device chamber ([13]; A. baumannii-1 and A. baumannii-2, by 8 hours of incubation): grew

— US9687845B2, “Self-loading microfluidic device and methods of use” (Wisconsin Alumni Research Foundation, priority 2011, dated 2017)
